Laboratory results: patent US10774081B2, “Indolo substituted piperidine compound as estrogen receptor down-regulator” (LUOXIN PHARMACEUTICAL (SHANGHAI) CO., LTD., priority 2016, dated 2020)

Columns and labels:
MCF-7 cells = experiment: MCF-7 Cell Proliferation Inhibition Assay; assay type: cell-based; details: Homo sapiens, MCF7, 144 h, 6 days incubation, CellTiter-Glo, read-out: MCF-7 cell proliferation suppression
Experimental: (1) MCF-7 Cell Proliferation Inhibition Assay
Substrate RPMI 1640, fetal calf serum, reagent Promega CellTiter-Glo. MCF-7 cell lines were purchased from the European Cell Culture Collection (ECACC). Envision multi-lable analyzer (PerkinElmer).
MCF-7 cells were seeded in black 384-well plates, each of the well has 600 cells in […] of cell suspension. The cell plates were placed in a carbon dioxide incubator overnight.
The compound to be tested was diluted by 5 times for 10 concentrations with Epmotion, ie., dilution from 0.25 mmol to 1.28 nmol, and replicated. 198 μl Medium was added to the middle plate, and 2 μl of each well of the gradient diluted compound was transferred to the correspondent position on the middle plate, and then 20 μl of each well was transferred to the cell plate after mixing. Then the cell plate was incubated in a carbon dioxide incubator for 6 days.
25 μl Promega CellTiter-Glo reagent was added into each well of the cell plate, the cell plate was then incubated for 10 mins at room temperature to stabilize the luminescence signal. PerkinElmer Envision multi-label analyser was used for readings.
The original data is converted to the inhibition rate using the equation (Max−Ratio)/(Max−Min)*100%, the value of IC50 also can be obtained by the curve fitting with four parameters. (by 205 model in XLFIT5,iDBS)

estrogen receptor = biological target: T1, estrogen receptor (Homo sapiens, UniProt P03372); experiment: ER Degradation in MCF-7 Cell; assay type: cell-based; details: MCF-7 cells, 20 hours incubation, ER antibody infrared fluorescence; read-out: MCF-7 ER degradation IC50 intracellular
T1 construct: endogenous in cells; host or cells: MCF-7 (ECACC)
T1 sequence (P03372 1-595): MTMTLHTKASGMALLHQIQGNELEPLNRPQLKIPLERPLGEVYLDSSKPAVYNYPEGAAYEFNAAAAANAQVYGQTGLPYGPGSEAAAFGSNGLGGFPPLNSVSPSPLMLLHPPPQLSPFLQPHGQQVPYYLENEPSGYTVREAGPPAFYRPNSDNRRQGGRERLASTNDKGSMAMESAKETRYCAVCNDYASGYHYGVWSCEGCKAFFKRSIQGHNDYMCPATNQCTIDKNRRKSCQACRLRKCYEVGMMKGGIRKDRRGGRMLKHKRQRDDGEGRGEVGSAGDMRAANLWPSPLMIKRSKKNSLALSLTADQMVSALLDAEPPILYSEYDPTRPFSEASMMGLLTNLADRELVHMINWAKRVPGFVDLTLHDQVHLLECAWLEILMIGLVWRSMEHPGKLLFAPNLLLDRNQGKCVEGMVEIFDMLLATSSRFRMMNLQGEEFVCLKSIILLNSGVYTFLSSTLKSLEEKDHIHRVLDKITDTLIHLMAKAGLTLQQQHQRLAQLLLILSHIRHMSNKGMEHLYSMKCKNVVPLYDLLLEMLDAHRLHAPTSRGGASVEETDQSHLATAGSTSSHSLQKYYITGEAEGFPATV
Experimental: Substrate RPMI 1640, fetal calf serum, PBS, 16% paraformaldehyde, Triton, confining liquid, estrogen receptor antibody, near0infrared goat anti-rabbit secondary antibody, DRAQ5 dye. The MCF-7 cell lines were purchased from the European Cell Culture Collection (ECACC). Odyssey infrared fluorescence scanning imaging system.
The MCF-7 cell was seeded in the black 384-well plate, each of the well has 3200 cells in 30 ml cell suspension. The cell plate were incubated in a carbon dioxide incubator for 4 days.
198 μl Medium was added into the middle plate and 2 μl each well of the gradient diluted compound was transferred to the correspond position on the middle plate, then the compound was transferred 20 μl per well after mixing to the cell plate. The cell plate was then incubated in a carbon dioxide incubator for 20 hours.
50 μl 8% Paraformaldehyde was added into each well of the cell plate, after incubation at room temperature for 30 min, the plate was washed by PBS twice, pat dried and 50 ul PBS containing 0.1% Triton was added, the plate was incubated at room temperature for 15 mins, then washed with PBS for 5 times, pat dried and 50 ul confining liquid was added and incubated at room temperature for 1 hour, pat dried and 50 ul confining liquid containing 0.1% estrogen receptor antibody was added and then left at 4° C. overnight. […]

[1] = Tissue distribution evaluation of the drug (plasma and brain); assay type: in vivo; details: mouse, mice, dosage 10 mpk, 21th day after administration, tissue collected near Tmax, read-out: Ratio of drug concentration Brain tissue/plasma
Experimental: Experiment 2: Tissue Distribution Evaluation of the Drug
On the 21th day after administration, select randomly three mice from the drug-administrated group, and collect their plasma samples at different timing, the mice were euthanized near Tmax, and the tumor, brain and breast samples were collected.
The procedure of collecting the plasma and tissue samples are as follows:
Plasma: Blood (60 μl) was collected using a 1.5 ml EDTA-K2 anticoagulation tube, the plasma was obtained after immediately centrifugation at 7000 rpm, at 4° C. for 10 mins, then the plasma simple was stored at −80° C. for drug concentration determination.
Tissue: Brain was collected using a 5 ml cryotube and immediately quick froze in liquid nitrogen. After sampling, tissues were stored at −80° C. for drug concentration determination used for comparing the distribution.

[2] = in vivo; cited from earlier work
breast cancer = details: intramuscularly administrated; cited from earlier work

Q: Which results are given for `CC1Cc2c([nH]c3ccccc23)C(c2c(F)cc(OCCN3CC(CC#N)C3)cc2F)N1CC(F)(F)F` (stereo not shown) [(I)]?
A: IC50 (MCF-7 cells): 1.17 nM; DC50 (estrogen receptor): 1.13 nM; Kp [1]: 13.1

Q: Which Kp [1] does the source give for `C[C@@H]1Cc2c([nH]c3ccccc23)[C@@H](c2c(F)cc(OCCN3CC(CF)C3)cc2F)N1CC(C)(C)F` [(II)] here?
A: Its Kp is 5.8.

Q: Which IC50 (MCF-7 cells) does the source give for `C[C@]12CC[C@@H]3c4ccc(O)cc4C[C@@H](CCCCCCCCC[S+]([O-])CCCC(F)(F)C(F)(F)F)[C@H]3[C@@H]1CC[C@@H]2O` (stereo partly shown) [Fulvestrant] here?
A: Its IC50 is 1.77 nM.

Q: What about the oral bioavailability [2] of the same compound?
A: The oral bioavailability was “zero”.

Q: And the “breast cancer patients showing clinical response” value (breast cancer)?
A: The value was 50%.
